Measurements reported in patent US6518302B1, “Remedies” (Takara Shuzo Co., Ltd., priority 1999, dated 2003).
Read-outs that look alike come from different tables or passages of the source.

Assays:
[1] = system: HL-60 (ATCC CCL-240) cells; test: Viability of HL-60 cells by Trypan Blue staining; format: cell-based; settings: Homo sapiens, read-out: Viability50, concentration that results in a viability of 50%
Procedure: HL-60 (ATCC CCL-240) cells were cultured at 37° C. in RPMI 1640 medium (Bio Whittaker) containing 10% fetal calf serum (JRH) which had been treated at 56° C. for 30 minutes and suspended in RPMI 1640 medium at a concentration of 2.5×10^5 cells/4.5 ml.
[…] each of aqueous solutions of the compound (2) at a concentration of 10, 50 or 100 mM, the compound (7) at a concentration of 500, 1000 or 1500 μM, the compound (9) at a concentration of 750, 1500 or 3000 μM, the compound (11) at a concentration of 750, 1500 or 3000 μM, or the compound (14) at a concentration of 750, 1500 or 3000 μM was added to 4.5 ml of the suspension. The mixtures were incubated at 37° C. for 24 hours in the presence of 5% CO2.
A portion of the cells cultured for 24 or 48 hours as described in Example 4 was stained with 0.4% Trypan Blue and examined under an optical microscope. The number of viable cells which were not stained and the number of dead cells which were stained blue were counted. The concentration of each of the compounds (2), (7), (9), (11) and (14) that results in a viability of 50% (Viability50 mM) was determined.

[2] = system: HL-60 (ATCC CCL-240) cells; test: Analysis of DNA fragmentation; format: cell-based, Human; settings: HL-60 cells, cultured for 24 or 48 hours (time not given)
Procedure: (§1) HL-60 (ATCC CCL-240) cells were cultured at 37° C. in RPMI 1640 medium (Bio Whittaker) containing 10% fetal calf serum (JRH) which had been treated at 56° C. for 30 minutes and suspended in RPMI 1640 medium at a concentration of 2.5×10^5 cells/4.5 ml. […] each of aqueous solutions of the compound (2) at a concentration of 10, 50 or 100 mM, the compound (7) at a concentration of 500, 1000 or 1500 μM, the compound (9) at a concentration of 750, 1500 or 3000 μM, the compound (11) at a concentration of 750, 1500 or 3000 μM, or the compound (14) at a concentration of 750, 1500 or 3000 μM was added to 4.5 ml of the suspension. The mixtures were incubated at 37° C. for 24 hours in the presence of 5% CO2. Measurement of apoptotic cells using FACScan as described in Saibo Kogaku, Bessatsu (Cell Technology, Suppl.) Jikken Protocol Series: Apoptosis Jikken Protocol (Experimental Protocol Series: Experimental Protocols for Apoptosis) (Shujun-sha) pp. 129-130 and analysis of DNA fragmentation as described in Bio Manual UP Series: […] Apoptosis Jikken-ho (Bio Manual UP Series: Current Experimental Methods for Apoptosis) (Yodo-sha) pp. 61-63 were carried out using cells cultured for 24 or 48 hours in the same manner as that described above.

[3] = system: HL-60 (ATCC CCL-240) cells; test: Measurement of apoptotic cells using FACScan; format: cell-based, Human; settings: HL-60 cells, cultured for 24 or 48 hours
Procedure: as §1

[4] = system: HL-60 (ATCC CCL-240) cells; test: Apoptosis morphology in HL-60 cells under optical microscope; format: cell-based, Human; settings: 24 hours
Procedure: HL-60 (ATCC CCL-240) cells were cultured at 37° C. in RPMI 1640 medium (Bio Whittaker) containing 10% fetal calf serum (JRH) which had been treated at 56° C. for 30 minutes and suspended in RPMI 1640 medium at a concentration of 2.5×10^5 cells/4.5 ml. […] each of aqueous solutions of the compound (2) at a concentration of 10, 50 or 100 mM, the compound (7) at a concentration of 500, 1000 or 1500 μM, the compound (9) at a concentration of 750, 1500 or 3000 μM, the compound (11) at a concentration of 750, 1500 or 3000 μM, or the compound (14) at a concentration of 750, 1500 or 3000 μM was added to 4.5 ml of the suspension. The mixtures were incubated at 37° C. for 24 hours in the presence of 5% CO2. The cultured cells were examined under an optical microscope.

[5] = system: NO production in celiac macrophages; test: NO production of celiac macrophages from orally dosed mice; format: in vivo; settings: 1% suspension in olive oil, forced oral administration once a day, 12 times in 15 days, 10 or 30 ml/kg, ddY mice
Procedure: The compound (7) in Example 1 was suspended in olive oil (Nacalai Tesque) at a concentration of 1% to prepare a 1% suspension of the compound (7). The 1% suspension of the compound (7) prepared as described above was administered to ddY mice (Japan SLC, female, 7 weeks old) by forced oral administration once a day, 12 times in 15 days, at a dosage of 10 or 30 ml/kg. Tap water was similarly administered by forced oral administration as a control. Each group consisted of 3 mice. Thereafter, 4 ml of RPMI 1640 medium (Bio Whittaker, Code. 12-702F) containing 10% fetal calf serum was intraperitoneally injected. Media removed from 3 mice after extensive massage were combined to obtain celiac cells. The celiac cells were suspended in RPMI 1640 medium containing 10% fetal calf serum at a concentration of 10^6 cells/ml. 500 μl of the suspension was added to each well of a 48-well microtiter plate and the plate was incubated at 37° C. for 2 hours in the presence of 5% CO2. Adhesive cells obtained by removing the culture supernatant were used as celiac macrophages. 500 μl of fresh Dulbecco's modified Eagle's medium (Bio Whittaker, Code. 12-917F) without Phenol Red containing 10% fetal calf serum and 2 mM L-glutamine was added to each well. […] The concentration of NO2^− resulting from oxidation of NO in the medium was then measured as described in Example 6. […]

Row | Compound | IC50 ([1]; 24 hours) [µM] | IC50 ([1]; 48 hours) [µM] | final concentration at which DNA fragmentation was observed [2] [µM] | final concentration at which apoptotic cells were observed [3] [µM] | final concentration at which condensation of nuclei, shrinking of cells and formation of apoptotic bodies were observed [4] [µM] | activity of inhibiting NO production in celiac macrophages (LPS and IFN-γ) [5]
1 | OCC1OC(OC2C(CO)OC(OC3C(CO)OC(OC4C(O)COC4C(O)C(O)O)C(O)C3O)C(O)C2O)C(O)C(O)C1O [Compound (14), 4-O-β-maltotoriosyl-3,6-anhydro-D-galactose] | 551 | 150 | ≥ 75 |  |  | 
2 | O=C[C@H](O)[C@H]1OC[C@@H](O)[C@@H]1OC(=O)c1ccccc1 [Compound (7), 4-O-benzoyl-3,6-anhydro-D-galactose] | 123 | 101 | ≥ 100 | ≥ 100 | ≥ 100 | remarkable activity of inhibiting NO production
